Reference: ChEMBL document CHEMBL1141254, “Daphnimacropodines A-D, alkaloids from Daphniphyllum macropodum” (J Nat Prod, 2007)
Activity calls are given as the source filed them.

Assays:
Type in all cases: functional, cell-based
Platelet [1] = assay: Inhibition of PAF-induced platelet aggregation
Platelet [2] = assay: Inhibition of ADP-induced platelet aggregation
Platelet [3] = assay: Inhibition of AA-induced platelet aggregation

Measured: Activity

C[C@@H]1CN(C=O)[C@H]2[C@@H]1CC[C@@]1(CO)C(=O)CC[C@H]3CCC=C3[C@@]21CCC(=O)O
inactive: all assays above

C[C@@H]1CN2C(=O)CC[C@@]34C5=CCC[C@@H]5CCC5[C@H](O)OC[C@]53CC[C@H]1[C@H]24 (some centres not stated)
inactive: all assays above

COC(=O)CC[C@@]12C3=CCC[C@@H]3CC[C@@H]3CN4C[C@@H](C)C(CC[C@@]31CO)C42 (some centres not stated)
inactive: all assays above

C[C@@H]1CN(C=O)[C@H]2[C@@H]1CC[C@]13COC(=O)CC[C@]21C1=CCC[C@@H]1CCC3=O
inactive: all assays above
